From ChEMBL document CHEMBL5131414, “Design, synthesis, and evaluation of phenylpiperazine-phenylacetate derivatives as rapid recovery hypnotic agents” (Bioorg Med Chem Lett, 2022)

How the values were obtained:
[1] = Lipophilicity, logP of the compound; format: physicochemical; details: octanol/water
Mus musculus [2] = assay: Anesthetic activity in mouse assessed as concentration required to induce hypnotic effect; format: functional, organism-based
[3] = Toxicity in mouse assessed as lethal dose; details: in vivo
[4] = Therapeutic index, ratio of LD50 for toxicity in mouse to HD50 for anesthetic activity in mouse; format: organism-based; details: in vivo, read-out: TI
[5] = molecular target: GABA-A receptor; anion channel (Homo sapiens) (UniProt P14867+P47870+P18507+P28472+P48169+Q99928+Q9UN88+P34903+O00591+O14764+Q8N1C3+P18505+P78334+P47869+P31644+Q16445); assay: Inhibition of GABAA receptor (unknown origin) at 50 uM by radioligand receptor binding assay relative to control; format: protein-complex assay
Mus musculus [6] = assay: Anesthetic activity in mouse assessed as onset time; format: functional
Mus musculus [7] = assay: Anesthetic activity in mouse assessed as time duration of loss of righting reflex; format: functional
Mus musculus [8] = assay: Anesthetic activity in mouse assessed as time to walk at 2 times of HD50 concentration; format: functional
Rattus norvegicus [9] = assay: Anesthetic activity in rat assessed as concentration required to induce hypnotic effect; format: functional, organism-based
[10] = Toxicity in rat assessed as lethal dose; details: in vivo
[11] = Therapeutic index, ratio of LD50 for toxicity in rat to HD50 for anesthetic activity in rat; details: read-out: TI
Oryctolagus cuniculus [12] = assay: Anesthetic activity in rabbit assessed as concentration required to induce hypnotic effect; format: functional, organism-based
[13] = Toxicity in rabbit assessed as lethal dose; set-up: species or system Oryctolagus cuniculus; details: in vivo
[14] = Therapeutic index, ratio of LD50 for toxicity in rabbit to HD50 for anesthetic activity in rabbit; details: read-out: TI
Rattus norvegicus [15] = assay: Anesthetic activity in rat assessed as onset time; format: functional
Rattus norvegicus [16] = assay: Anesthetic activity in rat assessed as time duration of loss of righting reflex; format: functional
Rattus norvegicus [17] = assay: Anesthetic activity in rat assessed as time to walk at 2 times of HD50 concentration; format: functional
Oryctolagus cuniculus [18] = assay: Anesthetic activity in rabbit assessed as onset time; format: functional
Oryctolagus cuniculus [19] = assay: Anesthetic activity in rabbit assessed as time duration of loss of righting reflex; format: functional
Oryctolagus cuniculus [20] = assay: Anesthetic activity in rabbit assessed as time to walk at 2 times of HD50 concentration; format: functional
[21] = molecular target: Sigma non-opioid intracellular receptor 1 (Homo sapiens) (UniProt Q99720); assay: Inhibition of sigma 1 receptor (unknown origin) at 50 uM by radioligand receptor binding assay relative to control
[22] = molecular target: Sigma intracellular receptor 2 (Homo sapiens) (UniProt Q5BJF2); assay: Inhibition of sigma 2 receptor (unknown origin) at 50 uM by radioligand receptor binding assay relative to control
[23] = molecular target: D(2) dopamine receptor (Homo sapiens) (UniProt P14416); assay: Inhibition of D2 receptor (unknown origin) at 50 uM by radioligand receptor binding assay relative to control
[24] = molecular target: D(3) dopamine receptor (Homo sapiens) (UniProt P35462); assay: Inhibition of D3 receptor (unknown origin) at 50 uM by radioligand receptor binding assay relative to control
[25] = molecular target: Mu-type opioid receptor (Homo sapiens) (UniProt P35372); assay: Inhibition of mu opioid receptor (unknown origin) at 50 uM by radioligand receptor binding assay relative to control
[26] = molecular target: T1, 5-hydroxytryptamine receptor 1A (Homo sapiens) (UniProt P08908); assay: Inhibition of 5-HT1A receptor (unknown origin) at 50 uM by radioligand receptor binding assay relative to control
T1 sequence (whole entry): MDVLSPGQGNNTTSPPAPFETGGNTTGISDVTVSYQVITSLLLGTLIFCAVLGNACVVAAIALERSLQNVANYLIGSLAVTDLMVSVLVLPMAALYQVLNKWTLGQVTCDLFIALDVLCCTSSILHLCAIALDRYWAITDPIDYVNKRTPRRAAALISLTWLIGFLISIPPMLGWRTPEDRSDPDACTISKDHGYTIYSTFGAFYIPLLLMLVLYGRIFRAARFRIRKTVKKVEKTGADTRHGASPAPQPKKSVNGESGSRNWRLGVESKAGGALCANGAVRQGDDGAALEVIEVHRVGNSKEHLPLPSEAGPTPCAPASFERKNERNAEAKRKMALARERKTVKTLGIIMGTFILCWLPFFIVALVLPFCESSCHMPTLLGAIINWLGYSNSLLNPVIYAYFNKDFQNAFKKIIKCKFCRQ

[27] = molecular target: 5-hydroxytryptamine receptor 2A (Homo sapiens) (UniProt P28223); assay: Inhibition of 5-HT2A receptor (unknown origin) at 50 uM by radioligand receptor binding assay relative to control
[28] = molecular target: Sodium-dependent serotonin transporter (Homo sapiens) (UniProt P31645); assay: Inhibition of 5-HT transporter (unknown origin) at 50 uM by radioligand receptor binding assay relative to control
[29] = molecular target: Sodium-dependent noradrenaline transporter (Homo sapiens) (UniProt P23975); assay: Inhibition of Noradrenaline receptor (unknown origin) at 50 uM by radioligand receptor binding assay relative to control
[30] = molecular target: Glutamate [NMDA] receptor (Homo sapiens) (UniProt Q05586+Q12879+Q13224+O15399+O60391+Q14957+Q8TCU5); assay: Inhibition of NMDA receptor (unknown origin) at 50 uM by radioligand receptor binding assay relative to control; format: protein-complex assay
[31] = molecular target: Cannabinoid receptor 1 (Homo sapiens) (UniProt P21554); assay: Inhibition of CB1 receptor (unknown origin) at 50 uM by radioligand receptor binding assay relative to control
[32] = molecular target: Cannabinoid receptor 2 (Homo sapiens) (UniProt P34972); assay: Inhibition of CB2 receptor (unknown origin) at 50 uM by radioligand receptor binding assay relative to control
[33] = molecular target: T2, Alpha-2A adrenergic receptor (Homo sapiens) (UniProt P08913); assay: Inhibition of adrenergic alpha 2A receptor (unknown origin) at 50 uM by radioligand receptor binding assay relative to control
T2 sequence (whole entry): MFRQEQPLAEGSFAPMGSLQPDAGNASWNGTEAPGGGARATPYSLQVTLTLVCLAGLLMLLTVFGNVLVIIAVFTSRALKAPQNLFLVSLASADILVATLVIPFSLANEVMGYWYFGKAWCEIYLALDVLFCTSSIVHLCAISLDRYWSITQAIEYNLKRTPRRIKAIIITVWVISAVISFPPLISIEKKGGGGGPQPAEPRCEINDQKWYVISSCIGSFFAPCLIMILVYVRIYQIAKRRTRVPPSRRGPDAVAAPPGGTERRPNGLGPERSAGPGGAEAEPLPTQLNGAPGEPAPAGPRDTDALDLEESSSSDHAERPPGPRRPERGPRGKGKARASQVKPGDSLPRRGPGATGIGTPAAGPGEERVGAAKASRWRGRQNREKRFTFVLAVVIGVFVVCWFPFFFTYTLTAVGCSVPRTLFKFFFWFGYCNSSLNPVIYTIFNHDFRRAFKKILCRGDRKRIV

D(2) dopamine receptor (Homo sapiens), sequence (P14416 whole entry): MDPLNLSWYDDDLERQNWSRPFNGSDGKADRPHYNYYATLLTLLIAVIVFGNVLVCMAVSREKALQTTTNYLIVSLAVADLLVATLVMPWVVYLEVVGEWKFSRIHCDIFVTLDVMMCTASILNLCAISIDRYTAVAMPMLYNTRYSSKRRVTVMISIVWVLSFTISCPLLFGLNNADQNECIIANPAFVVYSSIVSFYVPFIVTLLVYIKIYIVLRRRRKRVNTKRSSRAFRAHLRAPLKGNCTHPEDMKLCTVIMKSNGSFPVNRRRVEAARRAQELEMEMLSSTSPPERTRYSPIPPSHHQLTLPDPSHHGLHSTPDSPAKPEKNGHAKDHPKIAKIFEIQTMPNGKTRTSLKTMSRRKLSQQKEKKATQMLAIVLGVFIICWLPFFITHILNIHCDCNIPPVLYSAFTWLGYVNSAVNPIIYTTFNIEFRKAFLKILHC
Sodium-dependent serotonin transporter (Homo sapiens), sequence (P31645 whole entry, looked up): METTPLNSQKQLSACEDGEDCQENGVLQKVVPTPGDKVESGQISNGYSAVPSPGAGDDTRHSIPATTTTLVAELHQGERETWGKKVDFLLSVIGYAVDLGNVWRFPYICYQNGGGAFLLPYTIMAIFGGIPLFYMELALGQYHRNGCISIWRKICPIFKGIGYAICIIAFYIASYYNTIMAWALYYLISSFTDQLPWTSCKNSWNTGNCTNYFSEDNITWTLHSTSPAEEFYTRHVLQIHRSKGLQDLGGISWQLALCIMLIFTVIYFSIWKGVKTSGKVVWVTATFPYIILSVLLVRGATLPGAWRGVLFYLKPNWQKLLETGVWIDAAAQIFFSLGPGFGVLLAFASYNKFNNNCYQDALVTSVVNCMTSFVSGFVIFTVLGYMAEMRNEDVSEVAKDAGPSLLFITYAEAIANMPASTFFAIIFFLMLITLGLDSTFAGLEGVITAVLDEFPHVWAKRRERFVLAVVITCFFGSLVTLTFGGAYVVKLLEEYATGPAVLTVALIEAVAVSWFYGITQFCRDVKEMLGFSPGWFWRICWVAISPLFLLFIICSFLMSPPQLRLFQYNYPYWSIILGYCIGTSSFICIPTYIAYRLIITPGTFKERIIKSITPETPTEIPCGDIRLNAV
Sigma non-opioid intracellular receptor 1 (Homo sapiens), sequence (Q99720 whole entry): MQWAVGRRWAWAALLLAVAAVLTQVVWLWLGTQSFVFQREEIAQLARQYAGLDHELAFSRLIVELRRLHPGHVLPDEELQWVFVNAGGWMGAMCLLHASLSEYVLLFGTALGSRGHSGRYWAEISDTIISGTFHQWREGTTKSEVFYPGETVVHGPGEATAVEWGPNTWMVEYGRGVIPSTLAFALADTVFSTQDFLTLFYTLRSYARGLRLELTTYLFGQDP
Cannabinoid receptor 1 (Homo sapiens), sequence (P21554 whole entry): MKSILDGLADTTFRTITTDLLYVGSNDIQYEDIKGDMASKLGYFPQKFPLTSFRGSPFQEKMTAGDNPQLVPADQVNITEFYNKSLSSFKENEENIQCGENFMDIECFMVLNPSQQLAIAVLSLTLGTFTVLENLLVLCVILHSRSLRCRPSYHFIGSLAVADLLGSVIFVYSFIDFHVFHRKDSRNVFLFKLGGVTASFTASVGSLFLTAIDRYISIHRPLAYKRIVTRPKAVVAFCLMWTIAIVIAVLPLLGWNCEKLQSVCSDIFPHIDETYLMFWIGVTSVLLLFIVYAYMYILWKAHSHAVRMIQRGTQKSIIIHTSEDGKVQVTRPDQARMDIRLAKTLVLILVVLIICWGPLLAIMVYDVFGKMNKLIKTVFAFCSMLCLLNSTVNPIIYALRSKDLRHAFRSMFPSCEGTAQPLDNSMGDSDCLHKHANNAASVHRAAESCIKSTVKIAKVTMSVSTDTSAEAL
D(3) dopamine receptor (Homo sapiens), sequence (P35462 whole entry): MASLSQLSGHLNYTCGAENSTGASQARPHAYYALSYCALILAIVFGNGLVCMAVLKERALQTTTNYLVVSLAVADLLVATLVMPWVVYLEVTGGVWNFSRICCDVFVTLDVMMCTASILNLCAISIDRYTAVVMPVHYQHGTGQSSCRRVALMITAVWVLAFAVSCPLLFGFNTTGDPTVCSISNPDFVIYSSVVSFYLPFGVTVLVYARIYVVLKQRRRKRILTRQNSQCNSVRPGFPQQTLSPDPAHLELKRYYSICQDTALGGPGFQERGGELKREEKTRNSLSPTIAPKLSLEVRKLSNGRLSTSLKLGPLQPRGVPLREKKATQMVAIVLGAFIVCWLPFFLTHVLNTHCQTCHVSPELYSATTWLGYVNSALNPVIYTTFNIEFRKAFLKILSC
5-hydroxytryptamine receptor 2A (Homo sapiens), sequence (P28223 whole entry): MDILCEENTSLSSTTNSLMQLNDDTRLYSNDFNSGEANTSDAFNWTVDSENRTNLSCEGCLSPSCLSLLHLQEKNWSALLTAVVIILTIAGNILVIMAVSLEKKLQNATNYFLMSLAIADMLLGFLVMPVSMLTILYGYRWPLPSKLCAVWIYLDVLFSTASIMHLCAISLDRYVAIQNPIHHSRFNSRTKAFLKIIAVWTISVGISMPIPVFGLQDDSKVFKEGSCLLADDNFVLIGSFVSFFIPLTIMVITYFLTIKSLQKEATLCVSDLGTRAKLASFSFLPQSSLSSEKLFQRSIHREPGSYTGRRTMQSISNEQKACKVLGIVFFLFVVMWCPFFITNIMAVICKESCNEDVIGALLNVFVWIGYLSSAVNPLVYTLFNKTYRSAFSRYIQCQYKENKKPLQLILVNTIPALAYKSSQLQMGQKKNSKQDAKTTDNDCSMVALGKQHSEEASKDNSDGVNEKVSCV
Mu-type opioid receptor (Homo sapiens), sequence (P35372 whole entry): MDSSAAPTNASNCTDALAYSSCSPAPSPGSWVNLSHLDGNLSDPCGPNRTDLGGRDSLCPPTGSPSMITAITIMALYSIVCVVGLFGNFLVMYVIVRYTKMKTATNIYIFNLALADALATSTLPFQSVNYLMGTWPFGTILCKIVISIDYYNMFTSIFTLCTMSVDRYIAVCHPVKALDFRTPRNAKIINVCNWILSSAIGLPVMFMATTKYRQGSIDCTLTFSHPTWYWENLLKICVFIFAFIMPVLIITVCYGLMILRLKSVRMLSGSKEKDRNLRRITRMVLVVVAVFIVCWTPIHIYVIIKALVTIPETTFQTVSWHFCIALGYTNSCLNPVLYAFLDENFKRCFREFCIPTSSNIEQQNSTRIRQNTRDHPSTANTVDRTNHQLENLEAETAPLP
Sodium-dependent noradrenaline transporter (Homo sapiens), sequence (P23975 whole entry): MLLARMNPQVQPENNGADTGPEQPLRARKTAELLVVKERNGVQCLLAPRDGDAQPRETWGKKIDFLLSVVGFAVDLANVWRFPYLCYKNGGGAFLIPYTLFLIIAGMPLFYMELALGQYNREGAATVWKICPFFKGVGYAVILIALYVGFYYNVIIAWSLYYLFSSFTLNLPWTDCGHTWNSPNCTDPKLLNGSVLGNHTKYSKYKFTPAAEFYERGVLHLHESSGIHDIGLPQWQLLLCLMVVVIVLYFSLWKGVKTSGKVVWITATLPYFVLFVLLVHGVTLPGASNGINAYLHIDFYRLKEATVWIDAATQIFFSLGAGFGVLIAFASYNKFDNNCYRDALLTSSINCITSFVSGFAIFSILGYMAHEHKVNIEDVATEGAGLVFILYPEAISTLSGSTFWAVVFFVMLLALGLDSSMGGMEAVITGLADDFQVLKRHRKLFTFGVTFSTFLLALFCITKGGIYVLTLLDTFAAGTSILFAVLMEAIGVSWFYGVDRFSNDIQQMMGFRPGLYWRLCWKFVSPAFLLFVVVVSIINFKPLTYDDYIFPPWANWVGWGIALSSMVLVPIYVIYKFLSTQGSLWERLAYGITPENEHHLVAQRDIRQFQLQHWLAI
Sigma intracellular receptor 2 (Homo sapiens), sequence (Q5BJF2 whole entry): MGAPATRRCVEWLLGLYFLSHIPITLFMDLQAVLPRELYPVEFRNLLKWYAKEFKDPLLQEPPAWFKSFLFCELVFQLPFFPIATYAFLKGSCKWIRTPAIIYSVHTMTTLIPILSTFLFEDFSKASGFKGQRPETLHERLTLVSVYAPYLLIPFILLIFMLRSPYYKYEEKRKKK
Cannabinoid receptor 2 (Homo sapiens), sequence (P34972 whole entry): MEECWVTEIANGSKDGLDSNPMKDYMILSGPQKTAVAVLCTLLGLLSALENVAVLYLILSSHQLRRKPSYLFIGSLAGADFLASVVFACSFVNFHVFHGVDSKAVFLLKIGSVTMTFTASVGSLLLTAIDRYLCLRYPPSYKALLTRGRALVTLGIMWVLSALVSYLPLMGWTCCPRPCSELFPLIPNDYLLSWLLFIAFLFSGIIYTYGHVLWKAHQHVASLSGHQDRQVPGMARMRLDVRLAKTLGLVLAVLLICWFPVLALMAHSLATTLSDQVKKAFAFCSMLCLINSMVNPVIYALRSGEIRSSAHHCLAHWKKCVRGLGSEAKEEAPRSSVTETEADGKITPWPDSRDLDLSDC

Question: Which logP [1] does the source give for `CCCOC(=O)Cc1ccc(OCC(=O)N2CCN(c3ccccc3)CC2)c(OC)c1` here?
Answer: Its logP is 3.3.

Question: What about the “HD50 (median hypnotic dose)” value (Mus musculus [2]) of the same compound?
Answer: Its value is 33.2 mg/kg.

Question: And the LD50 [3]?
Answer: Its LD50 is 190 mg/kg.

Question: And the selectivity ratio [4]?
Answer: The selectivity ratio was 5.7.

Question: What about the inhibition [5] of the same compound?
Answer: Its inhibition is 35.6%.

Question: For `COc1cc(CC(=O)OCC(F)(F)F)ccc1OCC(=O)N1CCN(c2ccccc2)CC1`, which logP [1] is on record?
Answer: The logP was 3.4.

Question: And the “HD50 (median hypnotic dose)” value (Mus musculus [2])?
Answer: Its value is 30.8 mg/kg.

Question: What about the LD50 [3] of the same compound?
Answer: The LD50 was 200 mg/kg.

Question: What about the selectivity ratio [4] of the same compound?
Answer: Its selectivity ratio is 6.5.

Question: What about the inhibition [5] of the same compound?
Answer: Its inhibition is 29.9%.

Question: Which logP [1] does the source give for `CCCOC(=O)Cc1ccc(OCC(=O)N(CC)CC)c(OCC)c1` [AZD-3043] here?
Answer: Its logP is 2.5.

Question: What about the “HD50 (median hypnotic dose)” value (Mus musculus [2]) of the same compound?
Answer: The value was 17.6 mg/kg.

Question: And the selectivity ratio [4]?
Answer: Its selectivity ratio is 6.

Question: What about the Time (Mus musculus [6]) of the same compound?
Answer: The Time was 5.6 s.

Question: And the Time (Mus musculus [7])?
Answer: Its Time is 63.8 s.

Question: And the Time (Mus musculus [8])?
Answer: Its Time is 46.7 s.

Question: And the EC50 (Rattus norvegicus [9])?
Answer: Its EC50 is 7.9 mg/kg.

Question: What about the LD50 [10] of the same compound?
Answer: Its LD50 is 79.8 mg/kg.

Question: What about the selectivity ratio [11] of the same compound?
Answer: Its selectivity ratio is 10.1.

Question: And the EC50 (Oryctolagus cuniculus [12])?
Answer: The EC50 was 4.6 mg/kg.

Question: And the LD50 [13]?
Answer: The LD50 was 77.3 mg/kg.

Question: What about the selectivity ratio [14] of the same compound?
Answer: The selectivity ratio was 16.8.

Question: And the Time (Rattus norvegicus [15])?
Answer: Its Time is 12.4 s.

Question: What about the Time (Rattus norvegicus [16]) of the same compound?
Answer: Its Time is 74.2 s.

Question: What about the Time (Rattus norvegicus [17]) of the same compound?
Answer: The Time was 38.4 s.

Question: What about the Time (Oryctolagus cuniculus [18]) of the same compound?
Answer: The Time was 19.8 s.

Question: What about the Time (Oryctolagus cuniculus [19]) of the same compound?
Answer: Its Time is 221.6 s.

Question: And the Time (Oryctolagus cuniculus [20])?
Answer: Its Time is 89.6 s.

Question: And the inhibition [5]?
Answer: Its inhibition is 70.2%.

Question: What does the source list for `COc1cc(CC(=O)OCC(F)(F)F)ccc1OCC(=O)N1CCN(c2cccc(Cl)c2Cl)CC1`?
Answer: logP [1]: 4.6; HD50 (median hypnotic dose) (Mus musculus [2]): 34.5 mg/kg; LD50 [3]: 225 mg/kg; selectivity ratio [4]: 6.5; inhibition [5]: 39.4%

Question: For `CCOc1cc(CC(=O)OC(C)C)ccc1OCC(=O)N1CCN(c2cccc(C(F)(F)F)c2)CC1`, which logP [1] is on record?
Answer: The logP was 4.4.

Question: And the “HD50 (median hypnotic dose)” value (Mus musculus [2])?
Answer: Its value is 31.6 mg/kg.

Question: What about the LD50 [3] of the same compound?
Answer: Its LD50 is 163 mg/kg.

Question: What about the selectivity ratio [4] of the same compound?
Answer: The selectivity ratio was 5.1.

Question: What about the inhibition [5] of the same compound?
Answer: Its inhibition is 54.7%.

Question: For `CCOC(=O)Cc1ccc(OCC(=O)N2CCN(c3cccc(Cl)c3Cl)CC2)c(OCC)c1`, which logP [1] is on record?
Answer: The logP was 4.3.

Question: And the “HD50 (median hypnotic dose)” value (Mus musculus [2])?
Answer: Its value is 36.5 mg/kg.

Question: And the LD50 [3]?
Answer: Its LD50 is 237 mg/kg.

Question: And the selectivity ratio [4]?
Answer: Its selectivity ratio is 6.5.

Question: And the inhibition [5]?
Answer: The inhibition was 42.1%.

Question: What does the source list for `CCOc1cc(CC(=O)OCC(F)(F)F)ccc1OCC(=O)N1CCN(c2ccccc2)CC1`?
Answer: logP [1]: 3.8; HD50 (median hypnotic dose) (Mus musculus [2]): 24.8 mg/kg; LD50 [3]: 193 mg/kg; selectivity ratio [4]: 7.8; Time (Mus musculus [6]): 7.1 s; Time (Mus musculus [7]): 76.5 s; Time (Mus musculus [8]): 44.9 s; inhibition [5]: 70.6%

Question: Which results are given for `CCCOC(=O)Cc1ccc(OCC(=O)N2CCN(c3ccccc3)CC2)c(OCC)c1`?
Answer: logP [1]: 3.6; HD50 (median hypnotic dose) (Mus musculus [2]): 25 mg/kg; LD50 [3]: 200 mg/kg; selectivity ratio [4]: 8; Time (Mus musculus [6]): 6.4 s; Time (Mus musculus [7]): 83.3 s; Time (Mus musculus [8]): 38.6 s; EC50 (Rattus norvegicus [9]): 7.1 mg/kg; LD50 [10]: 72.9 mg/kg; selectivity ratio [11]: 10.3; EC50 (Oryctolagus cuniculus [12]): 5.2 mg/kg; LD50 [13]: 93.9 mg/kg; selectivity ratio [14]: 18.1; Time (Rattus norvegicus [15]): 9.6 s; Time (Rattus norvegicus [16]): 92.4 s; Time (Rattus norvegicus [17]): 33.4 s; Time (Oryctolagus cuniculus [18]): 14.5 s; Time (Oryctolagus cuniculus [19]): 292.9 s; Time (Oryctolagus cuniculus [20]): 81.7 s; inhibition [5]: 89.8%; inhibition [21]: 9.1%; inhibition [22]: 7.5%; inhibition [23]: 1.2%; inhibition [24]: 2.9%; inhibition [25]: 4.6%; inhibition [26]: 15.2%; inhibition [27]: 11.9%; inhibition [28]: 1.9%; inhibition [29]: 11.5%; inhibition [30]: 4.3%; inhibition [31]: 10.8%; inhibition [32]: 12.6%; inhibition [33]: 5.8%

Question: Which logP [1] does the source give for `CCCOC(=O)Cc1ccc(OCC(=O)N2CCN(c3cccc(C)c3C)CC2)c(OCC)c1` here?
Answer: Its logP is 4.6.

Question: What about the “HD50 (median hypnotic dose)” value (Mus musculus [2]) of the same compound?
Answer: Its value is 42.5 mg/kg.

Question: And the LD50 [3]?
Answer: Its LD50 is 269 mg/kg.

Question: What about the selectivity ratio [4] of the same compound?
Answer: Its selectivity ratio is 6.3.

Question: And the inhibition [5]?
Answer: Its inhibition is 45.5%.

Question: Which results are given for `CCOC(=O)Cc1ccc(OCC(=O)N2CCN(c3cccc(C)c3C)CC2)c(OCC)c1`?
Answer: logP [1]: 4.1; HD50 (median hypnotic dose) (Mus musculus [2]): 32.2 mg/kg; LD50 [3]: 209 mg/kg; selectivity ratio [4]: 6.5; inhibition [5]: 38.7%
